Test results from US9963442B2, “Pyridones as herbicides” (E I DU PONT DE NEMOURS AND COMPANY, priority 2014, dated 2018).

Experiments:
Format in all cases: in vivo
[1] = system: Italian ryegrass (Lolium multiflorum); experiment: Test A preemergence, directed soil spray; settings: approx. 10 days
Excerpt: (§1) Seeds of plant species selected from barnyardgrass (Echinochloa crus-galli), kochia (Kochia scoparia), ragweed (common ragweed, Ambrosia elatior), Italian ryegrass (Lolium multiflorum), giant foxtail (Setaria faberii), and pigweed (Amaranthus retroflexus) were planted into a blend of loam soil and sand and treated preemergence with a directed soil spray using test chemicals formulated in a non-phytotoxic solvent mixture which included a surfactant. At the same time, plants selected from these weed species and also wheat (Triticum aestivum), corn (Zea mays), blackgrass (Alopecurus myosuroides), and galium (catchweed bedstraw, Galium aparine) were planted in pots containing the same blend of loam soil and sand and treated with postemergence applications of test chemicals formulated in the same manner. Plants ranged in height from 2 to 10 cm and were in the one- to two-leaf stage for the postemergence treatment. Treated plants and untreated controls were maintained in a greenhouse for approximately 10 days, after which time all treated plants were compared to untreated controls and visually evaluated for injury. Plant response ratings, summarized in Table A, are based on a 0 to 100 scale where 0 is no effect and 100 is complete control. A dash (-) response means no test result.

[2] = system: barnyardgrass (Echinochloa crus-galli); experiment: Test A preemergence, directed soil spray; settings: approx. 10 days
Excerpt: as §1

[3] = system: giant foxtail (Setaria faberii); experiment: Test A preemergence, directed soil spray; settings: approx. 10 days
Excerpt: as §1

kochia (Kochia scoparia) [4] = experiment: Test A preemergence, directed soil spray; settings: approx. 10 days
Excerpt: as §1

[5] = system: pigweed (Amaranthus retroflexus); experiment: Test A preemergence, directed soil spray; settings: approx. 10 days
Excerpt: as §1

[6] = system: ragweed (common ragweed, Ambrosia elatior); experiment: Test A preemergence, directed soil spray; settings: approx. 10 days
Excerpt: as §1

[7] = system: Italian ryegrass (Lolium multiflorum); experiment: Test A postemergence application; settings: approx. 10 days
Excerpt: as §1

[8] = system: barnyardgrass (Echinochloa crus-galli); experiment: Test A postemergence application; settings: approx. 10 days
Excerpt: as §1

[9] = system: blackgrass (Alopecurus myosuroides); experiment: Test A postemergence application; settings: approx. 10 days
Excerpt: as §1

corn (Zea mays) = experiment: Test A postemergence application; settings: approx. 10 days
Excerpt: as §1

[10] = system: galium (catchweed bedstraw, Galium aparine); experiment: Test A postemergence application; settings: approx. 10 days
Excerpt: as §1

[11] = system: giant foxtail (Setaria faberii); experiment: Test A postemergence application; settings: approx. 10 days
Excerpt: as §1

kochia (Kochia scoparia) [12] = experiment: Test A postemergence application; settings: approx. 10 days
Excerpt: as §1

[13] = system: pigweed (Amaranthus retroflexus); experiment: Test A postemergence application; settings: approx. 10 days
Excerpt: as §1

[14] = system: ragweed (common ragweed, Ambrosia elatior); experiment: Test A postemergence application; settings: approx. 10 days
Excerpt: as §1

[15] = system: wheat (Triticum aestivum); experiment: Test A postemergence application; settings: approx. 10 days
Excerpt: as §1

[16] = system: barnyardgrass (Echinochloa crus-galli); experiment: Test B flooded paddy test; design: key: 0 = no effect, 100 = complete control; settings: Flood, 250 g ai/ha applied to paddy water at 2-leaf stage; visually evaluated after 13 to 15 days; scale 0 (no effect) to 100 (complete control)
Experimental: (§2) Plant species in the flooded paddy test selected from rice (Oryza sativa), sedge, umbrella (small-flower umbrella sedge, Cyperus difformis), ducksalad (Heteranthera limosa), and barnyardgrass (Echinochloa crus-galli) were grown to the 2-leaf stage for testing. At time of treatment, test pots were flooded to 3 cm above the soil surface, treated by application of test compounds directly to the paddy water, and then maintained at that water depth for the duration of the test. Treated plants and controls were maintained in a greenhouse for 13 to 15 days, after which time all species were compared to controls and visually evaluated. Plant response ratings, summarized in Table B, are based on a scale of 0 to 100 where 0 is no effect and 100 is complete control. A dash (-) response means no test result.

[17] = system: ducksalad (Heteranthera limosa); experiment: Test B flooded paddy test; design: key: 0 = no effect, 100 = complete control; settings: Flood, 250 g ai/ha applied to paddy water at 2-leaf stage; visually evaluated after 13 to 15 days; scale 0 (no effect) to 100 (complete control)
Experimental: as §2

rice (Oryza sativa) = experiment: Test B flooded paddy test; design: key: 0 = no effect, 100 = complete control; settings: Flood, 250 g ai/ha applied to paddy water at 2-leaf stage; visually evaluated after 13 to 15 days; scale 0 (no effect) to 100 (complete control)
Experimental: as §2

[18] = system: sedge, umbrella (small-flower umbrella sedge, Cyperus difformis); experiment: Test B flooded paddy test; design: key: 0 = no effect, 100 = complete control; settings: Flood, 250 g ai/ha applied to paddy water at 2-leaf stage; visually evaluated after 13 to 15 days; scale 0 (no effect) to 100 (complete control)
Experimental: as §2

O=c1cccc(Oc2ncc(Cl)cn2)n1-c1cccc(OC(F)(F)F)c1 [Compound 3, 6-[(5-chloro-2-pyrimidinyl)oxy]-1-[3-(trifluoromethoxy)phenyl]-2(1H)-pyridinone]
40: Plant response rating (0 to 100 scale, 0 no effect, 100 complete control), Kochia (kochia (Kochia scoparia) [4]; 1000 g ai/ha) | Plant response rating (0 to 100 scale, 0 no effect, 100 complete control), Blackgrass ([9]; 1000 g ai/ha)
0: Plant response rating, Barnyardgrass [16] | Plant response rating, Ducksalad [17] | Plant response rating, Rice (rice (Oryza sativa)) | Plant response rating, Sedge, Umbrella [18]
50: Plant response rating (0 to 100 scale, 0 no effect, 100 complete control), Ryegrass, Italian ([1]; 1000 g ai/ha)
100: Plant response rating (0 to 100 scale, 0 no effect, 100 complete control), Foxtail, Giant ([3]; 1000 g ai/ha) | Plant response rating (0 to 100 scale, 0 no effect, 100 complete control), Galium ([10]; 1000 g ai/ha) | Plant response rating (0 to 100 scale, 0 no effect, 100 complete control), Foxtail, Giant ([11]; 1000 g ai/ha)
70: Plant response rating (0 to 100 scale, 0 no effect, 100 complete control), Pigweed ([5]; 1000 g ai/ha) | Plant response rating (0 to 100 scale, 0 no effect, 100 complete control), Barnyardgrass ([8]; 1000 g ai/ha)
90: Plant response rating (0 to 100 scale, 0 no effect, 100 complete control), Kochia (kochia (Kochia scoparia) [12]; 1000 g ai/ha) | Plant response rating (0 to 100 scale, 0 no effect, 100 complete control), Pigweed ([13]; 1000 g ai/ha)
80: Plant response rating (0 to 100 scale, 0 no effect, 100 complete control), Barnyardgrass ([2]; 1000 g ai/ha)
30: Plant response rating (0 to 100 scale, 0 no effect, 100 complete control), Ryegrass, Italian ([7]; 1000 g ai/ha) | Plant response rating (0 to 100 scale, 0 no effect, 100 complete control), Ragweed ([14]; 1000 g ai/ha) | Plant response rating (0 to 100 scale, 0 no effect, 100 complete control), Wheat ([15]; 1000 g ai/ha)
20: Plant response rating (0 to 100 scale, 0 no effect, 100 complete control), Ragweed ([6]; 1000 g ai/ha) | Plant response rating (0 to 100 scale, 0 no effect, 100 complete control), Corn (corn (Zea mays); 1000 g ai/ha)

O=c1cccc(Oc2ncc(Cl)cn2)n1-c1ncc(F)cn1 [Compound 4]
50: Plant response rating (0 to 100 scale, 0 no effect, 100 complete control), Galium ([10]; 125 g ai/ha) | Plant response rating (0 to 100 scale, 0 no effect, 100 complete control), Pigweed ([13]; 31 g ai/ha)
70: Plant response rating (0 to 100 scale, 0 no effect, 100 complete control), Kochia (kochia (Kochia scoparia) [4]; 125 g ai/ha) | Plant response rating (0 to 100 scale, 0 no effect, 100 complete control), Pigweed ([5]; 31 g ai/ha) | Plant response rating (0 to 100 scale, 0 no effect, 100 complete control), Pigweed ([5]; 125 g ai/ha) | Plant response rating (0 to 100 scale, 0 no effect, 100 complete control), Pigweed ([13]; 125 g ai/ha)
10: Plant response rating (0 to 100 scale, 0 no effect, 100 complete control), Corn (corn (Zea mays); 125 g ai/ha) | Plant response rating (0 to 100 scale, 0 no effect, 100 complete control), Ragweed ([14]; 31 g ai/ha)
20: Plant response rating (0 to 100 scale, 0 no effect, 100 complete control), Foxtail, Giant ([3]; 125 g ai/ha) | Plant response rating (0 to 100 scale, 0 no effect, 100 complete control), Blackgrass ([9]; 31 g ai/ha) | Plant response rating (0 to 100 scale, 0 no effect, 100 complete control), Blackgrass ([9]; 125 g ai/ha) | Plant response rating (0 to 100 scale, 0 no effect, 100 complete control), Ragweed ([14]; 125 g ai/ha)
40: Plant response rating (0 to 100 scale, 0 no effect, 100 complete control), Kochia (kochia (Kochia scoparia) [12]; 31 g ai/ha)
30: Plant response rating (0 to 100 scale, 0 no effect, 100 complete control), Galium ([10]; 31 g ai/ha)
0: Plant response rating (0 to 100 scale, 0 no effect, 100 complete control), Ryegrass, Italian ([1]; 31 g ai/ha) | Plant response rating (0 to 100 scale, 0 no effect, 100 complete control), Ryegrass, Italian ([1]; 125 g ai/ha) | Plant response rating (0 to 100 scale, 0 no effect, 100 complete control), Barnyardgrass ([2]; 31 g ai/ha) | Plant response rating (0 to 100 scale, 0 no effect, 100 complete control), Barnyardgrass ([2]; 125 g ai/ha) | Plant response rating (0 to 100 scale, 0 no effect, 100 complete control), Foxtail, Giant ([3]; 31 g ai/ha) | Plant response rating (0 to 100 scale, 0 no effect, 100 complete control), Kochia (kochia (Kochia scoparia) [4]; 31 g ai/ha) | Plant response rating (0 to 100 scale, 0 no effect, 100 complete control), Ragweed ([6]; 31 g ai/ha) | Plant response rating (0 to 100 scale, 0 no effect, 100 complete control), Ragweed ([6]; 125 g ai/ha) | Plant response rating (0 to 100 scale, 0 no effect, 100 complete control), Ryegrass, Italian ([7]; 31 g ai/ha) | Plant response rating (0 to 100 scale, 0 no effect, 100 complete control), Ryegrass, Italian ([7]; 125 g ai/ha) | Plant response rating (0 to 100 scale, 0 no effect, 100 complete control), Barnyardgrass ([8]; 31 g ai/ha) | Plant response rating (0 to 100 scale, 0 no effect, 100 complete control), Barnyardgrass ([8]; 125 g ai/ha) | Plant response rating (0 to 100 scale, 0 no effect, 100 complete control), Corn (corn (Zea mays); 31 g ai/ha) | Plant response rating (0 to 100 scale, 0 no effect, 100 complete control), Foxtail, Giant ([11]; 31 g ai/ha) | Plant response rating (0 to 100 scale, 0 no effect, 100 complete control), Foxtail, Giant ([11]; 125 g ai/ha) | Plant response rating (0 to 100 scale, 0 no effect, 100 complete control), Wheat ([15]; 31 g ai/ha) | Plant response rating (0 to 100 scale, 0 no effect, 100 complete control), Wheat ([15]; 125 g ai/ha) | Plant response rating, Barnyardgrass [16] | Plant response rating, Ducksalad [17] | Plant response rating, Rice (rice (Oryza sativa)) | Plant response rating, Sedge, Umbrella [18]
80: Plant response rating (0 to 100 scale, 0 no effect, 100 complete control), Kochia (kochia (Kochia scoparia) [12]; 125 g ai/ha)
